{"source": "patent US20100298141A1", "about": "“SUBSTITUTED PYRIDINE N-OXIDE HERBICIDES” (E. I. DU PONT DE NEMOURS AND COMPANY, priority 2007, published 2010)", "key": {"giant foxtail [1]": {"test_system": "giant foxtail", "experiment": "Test A pre-/postemergence greenhouse test", "assay_type": "in vivo, Setaria faberi", "conditions": "for Foxtail, Giant plant response rating: 0 to 100 scale", "outline": "(§1)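 Untreated controls served as the reference for visual injury ratings taken about ten days after spraying. The non-phytotoxic solvent/surfactant formulation was applied preemergence to seeded loam and sand and postemergence to plants two to ten cm high.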"}, "morningglory": {"test_system": "morningglory", "experiment": "Test A pre-/postemergence greenhouse test", "assay_type": "in vivo, Ipomoea spp.", "conditions": "for Morningglory plant response rating: 0 to 100 scale", "outline": "as §1"}, "redroot pigweed": {"test_system": "redroot pigweed", "experiment": "Test A pre-/postemergence greenhouse test", "assay_type": "in vivo, Amaranthus retroflexus", "conditions": "for Pigweed plant response rating: 0 to 100 scale", "outline": "as §1"}, "wheat [2]": {"test_system": "wheat", "experiment": "Test A pre-/postemergence greenhouse test", "assay_type": "in vivo, Triticum aestivum", "conditions": "for Wheat plant response rating: 0 to 100 scale", "outline": "as §1"}, "blackgrass": {"test_system": "blackgrass", "experiment": "Test C pre-/postemergence test", "assay_type": "in vivo, Alopecurus myosuroides", "outline": "(§2)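 Test chemicals were formulated with surfactant in a non-phytotoxic solvent and sprayed both on freshly planted seeds (preemergence) and on 1- to 4-leaf plants of 2–18 cm (postemergence). Flooded-paddy pots received compound directly into 3 cm of standing water, maintained for the test.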"}, "downy brome": {"test_system": "downy brome", "experiment": "Test C pre-/postemergence test", "assay_type": "in vivo, Bromus tectorum", "outline": "as §2"}, "wheat [3]": {"test_system": "wheat", "experiment": "Test C pre-/postemergence test", "assay_type": "in vivo, Triticum aestivum", "outline": "as §2"}, "wild oat": {"test_system": "wild oat", "experiment": "Test C pre-/postemergence test", "assay_type": "in vivo, Avena fatua", "outline": "as §2"}, "catchweed bedstraw": {"test_system": "catchweed bedstraw", "experiment": "Test C pre-/postemergence test", "assay_type": "in vivo, Galium aparine", "outline": "as §2"}, "Surinam grass": {"test_system": "Surinam grass", "experiment": "Test C pre-/postemergence test", "assay_type": "in vivo, Brachiaria decumbens", "outline": "as §2"}, "cocklebur": {"test_system": "cocklebur", "experiment": "Test C pre-/postemergence test", "assay_type": "in vivo, Xanthium strumarium", "outline": "as §2"}, "woolly cupgrass": {"test_system": "woolly cupgrass", "experiment": "Test C pre-/postemergence test", "assay_type": "in vivo, Eriochloa villosa", "outline": "as §2"}, "giant foxtail [4]": {"test_system": "giant foxtail", "experiment": "Test C pre-/postemergence test", "assay_type": "in vivo, Setaria faberii", "outline": "as §2"}, "kochia": {"test_system": "kochia", "experiment": "Test C pre-/postemergence test", "assay_type": "in vivo, Kochia scoparia", "outline": "as §2"}, "lambsquarters": {"test_system": "lambsquarters", "experiment": "Test C pre-/postemergence test", "assay_type": "in vivo, Chenopodium album", "outline": "as §2"}, "eastern black nightshade": {"test_system": "eastern black nightshade", "experiment": "Test C pre-/postemergence test", "assay_type": "in vivo, Solanum ptycanthum", "outline": "as §2"}, "common ragweed": {"test_system": "common ragweed", "experiment": "Test C pre-/postemergence test", "assay_type": "in vivo, Ambrosia elation", "outline": "as §2"}, "[5]": {"test_system": "common (oilseed) sunflower", "experiment": "Test C pre-/postemergence test", "assay_type": "in vivo, Helianthus annuus", "outline": "as §2"}, "velvetleaf": {"test_system": "velvetleaf", "experiment": "Test C pre-/postemergence test", "assay_type": "in vivo, Abutilon theophrasti", "outline": "as §2"}, "[6]": {"conditions": "Postemergence, 125 g ai/ha, 0 to 100 scale where 0 is no effect and 100 is complete control"}, "[7]": {"conditions": "Postemergence, 500 g ai/ha, 0 is no effect, 100 is complete control"}, "[8]": {"conditions": "Preemergence, 125 g ai/ha, 0 no effect, 100 complete control"}, "[9]": {"conditions": "Preemergence, 500 g ai/ha, 0 no effect, 100 complete control"}, "[10]": {"conditions": "62 g ai/ha, Preemergence, scale 0 to 100"}, "[11]": {"conditions": "125 g ai/ha, preemergence, scale 0 (no effect) to 100 (complete control)"}, "[12]": {"conditions": "Preemergence, 31 g ai/ha, scale 0 to 100 (0 no effect, 100 complete control)"}, "[13]": {"conditions": "preemergence, 250 g ai/ha, scale 0 (no effect) to 100 (complete control)"}}, "data": [{"smiles": "Cc1cc[n+]([O-])c(S(=O)(=O)Cc2c(C(F)(F)C(F)(F)F)nn(C)c2OCC(F)(F)F)c1", "note": "[Compound 99]", "values": [{"measurement": "Plant response rating, Foxtail, Giant", "setting": "giant foxtail [1]; [6]", "result": 70}, {"measurement": "Foxtail, Giant plant response rating", "setting": "giant foxtail [1]; [7]", "result": 80}, {"measurement": "Foxtail, Giant plant response rating", "setting": "giant foxtail [1]; [8]", "result": 90}, {"measurement": "Foxtail, Giant plant response rating", "setting": "giant foxtail [1]; [9]", "result": 100}, {"measurement": "Plant response rating, Morningglory", "setting": "morningglory; [6]", "result": 40}, {"measurement": "Morningglory plant response rating", "setting": "morningglory; [7]", "result": 50}, {"measurement": "Morningglory plant response rating", "setting": "morningglory; [8]", "result": 50}, {"measurement": "Morningglory plant response rating", "setting": "morningglory; [9]", "result": 100}, {"measurement": "Plant response rating, Pigweed", "setting": "redroot pigweed; [6]", "result": 10}, {"measurement": "Pigweed plant response rating", "setting": "redroot pigweed; [7]", "result": 60}, {"measurement": "Pigweed plant response rating", "setting": "redroot pigweed; [8]", "result": 100}, {"measurement": "Pigweed plant response rating", "setting": "redroot pigweed; [9]", "result": 100}, {"measurement": "Plant response rating, Wheat", "setting": "wheat [2]; [6]", "result": 50}, {"measurement": "Wheat plant response rating", "setting": "wheat [2]; [7]", "result": 70}, {"measurement": "Wheat plant response rating", "setting": "wheat [2]; [8]", "result": 50}, {"measurement": "Wheat plant response rating", "setting": "wheat [2]; [9]", "result": 90}, {"measurement": "Blackgrass plant response rating", "setting": "blackgrass; [10]", "result": 100}, {"measurement": "Blackgrass plant response rating", "setting": "blackgrass; [11]", "result": 100}, {"measurement": "Plant response rating, Blackgrass", "setting": "blackgrass; [12]", "result": 80}, {"measurement": "Blackgrass plant response rating", "setting": "blackgrass; [13]", "result": 100}, {"measurement": "Bromegrass, Downy plant response rating", "setting": "downy brome; [10]", "result": 50}, {"measurement": "Bromegrass, Downy plant response rating", "setting": "downy brome; [11]", "result": 60}, {"measurement": "Plant response rating, Bromegrass, Downy", "setting": "downy brome; [12]", "result": 30}, {"measurement": "Bromegrass, Downy plant response rating", "setting": "downy brome; [13]", "result": 70}, {"measurement": "Wheat plant response rating", "setting": "wheat [3]; [10]", "result": 55}, {"measurement": "Wheat plant response rating", "setting": "wheat [3]; [11]", "result": 55}, {"measurement": "Plant response rating, Wheat", "setting": "wheat [3]; [12]", "result": 25}, {"measurement": "Wheat plant response rating", "setting": "wheat [3]; [13]", "result": 95}, {"measurement": "Oat, Wild plant response rating", "setting": "wild oat; [10]", "result": 80}, {"measurement": "Oat, Wild plant response rating", "setting": "wild oat; [11]", "result": 95}, {"measurement": "Plant response rating, Oat, Wild", "setting": "wild oat; [12]", "result": 30}, {"measurement": "Oat, Wild plant response rating", "setting": "wild oat; [13]", "result": 95}, {"measurement": "Galium plant response rating", "setting": "catchweed bedstraw; [10]", "result": 100}, {"measurement": "Galium plant response rating", "setting": "catchweed bedstraw; [11]", "result": 100}, {"measurement": "Plant response rating, Galium", "setting": "catchweed bedstraw; [12]", "result": 100}, {"measurement": "Galium plant response rating", "setting": "catchweed bedstraw; [13]", "result": 100}, {"measurement": "Surinam Grass plant response rating", "setting": "Surinam grass; [10]", "result": 75}, {"measurement": "Surinam Grass plant response rating", "setting": "Surinam grass; [11]", "result": 95}, {"measurement": "Plant response rating, Surinam Grass", "setting": "Surinam grass; [12]", "result": 0}, {"measurement": "Surinam Grass plant response rating", "setting": "Surinam grass; [13]", "result": 95}, {"measurement": "Cocklebur plant response rating", "setting": "cocklebur; [10]", "result": 0}, {"measurement": "Cocklebur plant response rating", "setting": "cocklebur; [11]", "result": 0}, {"measurement": "Plant response rating, Cocklebur", "setting": "cocklebur; [12]", "result": 0}, {"measurement": "Cocklebur plant response rating", "setting": "cocklebur; [13]", "result": 30}, {"measurement": "Cupgrass, Woolly plant response rating", "setting": "woolly cupgrass; [10]", "result": 0}, {"measurement": "Cupgrass, Woolly plant response rating", "setting": "woolly cupgrass; [11]", "result": 70}, {"measurement": "Plant response rating, Cupgrass, Woolly", "setting": "woolly cupgrass; [12]", "result": 0}, {"measurement": "Cupgrass, Woolly plant response rating", "setting": "woolly cupgrass; [13]", "result": 85}, {"measurement": "Foxtail, Giant plant response rating", "setting": "giant foxtail [4]; [10]", "result": 85}, {"measurement": "Foxtail, Giant plant response rating", "setting": "giant foxtail [4]; [11]", "result": 100}, {"measurement": "Foxtail, Giant plant response rating", "setting": "giant foxtail [4]; [13]", "result": 100}, {"measurement": "Kochia plant response rating", "setting": "kochia; [10]", "result": 100}, {"measurement": "Kochia plant response rating", "setting": "kochia; [11]", "result": 100}, {"measurement": "Plant response rating, Kochia", "setting": "kochia; [12]", "result": 100}, {"measurement": "Kochia plant response rating", "setting": "kochia; [13]", "result": 100}, {"measurement": "Lambsquarters plant response rating", "setting": "lambsquarters; [10]", "result": 100}, {"measurement": "Lambsquarters plant response rating", "setting": "lambsquarters; [11]", "result": 100}, {"measurement": "Plant response rating, Lambsquarters", "setting": "lambsquarters; [12]", "result": 100}, {"measurement": "Lambsquarters plant response rating", "setting": "lambsquarters; [13]", "result": 100}, {"measurement": "Nightshade plant response rating", "setting": "eastern black nightshade; [10]", "result": 98}, {"measurement": "Nightshade plant response rating", "setting": "eastern black nightshade; [11]", "result": 100}, {"measurement": "Plant response rating, Nightshade", "setting": "eastern black nightshade; [12]", "result": 90}, {"measurement": "Nightshade plant response rating", "setting": "eastern black nightshade; [13]", "result": 100}, {"measurement": "Ragweed plant response rating", "setting": "common ragweed; [10]", "result": 100}, {"measurement": "Ragweed plant response rating", "setting": "common ragweed; [11]", "result": 100}, {"measurement": "Ragweed plant response rating", "setting": "common ragweed; [13]", "result": 100}, {"measurement": "Sunflower plant response rating", "setting": "[5]; [10]", "result": 30}, {"measurement": "Sunflower plant response rating", "setting": "[5]; [11]", "result": 30}, {"measurement": "Plant response rating, Sunflower", "setting": "[5]; [12]", "result": 30}, {"measurement": "Sunflower plant response rating", "setting": "[5]; [13]", "result": 40}, {"measurement": "Velvetleaf plant response rating", "setting": "velvetleaf; [10]", "result": 80}, {"measurement": "Velvetleaf plant response rating", "setting": "velvetleaf; [11]", "result": 100}, {"measurement": "Plant response rating, Velvetleaf", "setting": "velvetleaf; [12]", "result": 0}, {"measurement": "Velvetleaf plant response rating", "setting": "velvetleaf; [13]", "result": 100}]}]}
